# In ChEMBL document CHEMBL5712074, “Divergent clonal evolution of castration-resistant neuroendocrine prostate cancer” (Nat Med, 2016):
# The source made the active and inactive calls. No cut-off for these calls is given here.
# Test system: NCI-H660
# Test: Cytotoxicity against human NCI-H660 cells assessed as decrease in cell viability at 5 to 10 uM incubated for 48 hrs by CellTiter-Blue assay
# Format: functional, cell-based
# Conditions: dose 5-10 µM
smiles,measurement,value
CCCc1cc(C)[nH]c(=O)c1CNC(=O)c1cc(-c2ccnc(N3CCN(C)CC3)c2)cc2c1cnn2C(C)C,Activity,Active
